Target: Aβ42 (Homo sapiens, UniProt P05067)
Test: Th-T (thioflavin-T) assay of Aβ42 aggregation
Format: biochemical
Conditions: for Th-T assay plate reading, mean of three wells (Supplementary Fig. 47): source data, Ab alone and No Ab as controls

Chain of Aβ42 (P05067 672-713): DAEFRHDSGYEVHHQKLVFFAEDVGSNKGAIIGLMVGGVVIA

## C=C1CCC2C(C)(CC(=O)C=C(C)C)C(O)CCC2(C)C1Cc1c(O)c(C)c(C)oc1=O (centres unmarked) [Compound 7]
Aβ42 aggregation time course, reading M117
  Th-T fluorescence, mean of three wells: 3.444
Aβ42 aggregation time course, reading M118
  Th-T fluorescence, mean of three wells: 3.462
Aβ42 aggregation time course, reading M119
  Th-T fluorescence, mean of three wells: 3.421
Aβ42 aggregation time course, reading M120
  Th-T fluorescence, mean of three wells: 3.485
Aβ42 aggregation time course, reading M121
  Th-T fluorescence, mean of three wells: 3.437
Aβ42 aggregation time course, reading M122
  Th-T fluorescence, mean of three wells: 3.4838
Aβ42 aggregation time course, reading M123
  Th-T fluorescence, mean of three wells: 3.463
Aβ42 aggregation time course, reading M124
  Th-T fluorescence, mean of three wells: 3.451
Aβ42 aggregation time course, reading M125
  Th-T fluorescence, mean of three wells: 3.454
Aβ42 aggregation time course, reading M126
  Th-T fluorescence, mean of three wells: 3.465
Aβ42 aggregation time course, reading M127
  Th-T fluorescence, mean of three wells: 3.446
Aβ42 aggregation time course, reading M128
  Th-T fluorescence, mean of three wells: 3.459
Aβ42 aggregation time course, reading M129
  Th-T fluorescence, mean of three wells: 3.461
Aβ42 aggregation time course, reading M130
  Th-T fluorescence, mean of three wells: 3.435
Aβ42 aggregation time course, reading M131
  Th-T fluorescence, mean of three wells: 3.434
Aβ42 aggregation time course, reading M132
  Th-T fluorescence, mean of three wells: 3.446
Aβ42 aggregation time course, reading M133
  Th-T fluorescence, mean of three wells: 3.459
Aβ42 aggregation time course, reading M134
  Th-T fluorescence, mean of three wells: 3.427
Aβ42 aggregation time course, reading M135
  Th-T fluorescence, mean of three wells: 3.416
Aβ42 aggregation time course, reading M136
  Th-T fluorescence, mean of three wells: 3.414
Supplementary Fig. 47, reading M137
  Th-T fluorescence, mean of three wells: 3.399
Supplementary Fig. 47, reading M138
  Th-T fluorescence, mean of three wells: 3.412
Supplementary Fig. 47, reading M139
  Th-T fluorescence, mean of three wells: 3.411
Supplementary Fig. 47, reading M140
  Th-T fluorescence, mean of three wells: 3.433
Supplementary Fig. 47, reading M141
  Th-T fluorescence, mean of three wells: 3.413
Supplementary Fig. 47, reading M142
  Th-T fluorescence, mean of three wells: 3.437
Supplementary Fig. 47, reading M143
  Th-T fluorescence, mean of three wells: 3.394
Supplementary Fig. 47, reading M144
  Th-T fluorescence, mean of three wells: 3.432
Supplementary Fig. 47, reading M145
  Th-T fluorescence, mean of three wells: 3.431
Supplementary Fig. 47 source data, measurement M37 of time course
  Th-T fluorescence, mean of three wells: 3.548
Supplementary Fig. 47 source data, measurement M38 of time course
  Th-T fluorescence, mean of three wells: 3.519
Supplementary Fig. 47 source data, measurement M39 of time course
  Th-T fluorescence, mean of three wells: 3.507
Supplementary Fig. 47 source data, measurement M40 of time course
  Th-T fluorescence, mean of three wells: 3.528
Supplementary Fig. 47 source data, measurement M41 of time course
  Th-T fluorescence, mean of three wells: 3.5472
Supplementary Fig. 47 source data, measurement M42 of time course
  Th-T fluorescence, mean of three wells: 3.534
Supplementary Fig. 47 source data, measurement M43 of time course
  Th-T fluorescence, mean of three wells: 3.54
Supplementary Fig. 47 source data, measurement M44 of time course
  Th-T fluorescence, mean of three wells: 3.555
Supplementary Fig. 47 source data, measurement M45 of time course
  Th-T fluorescence, mean of three wells: 3.57
Supplementary Fig. 47 source data, measurement M46 of time course
  Th-T fluorescence, mean of three wells: 3.557
Supplementary Fig. 47 source data, measurement M47 of time course
  Th-T fluorescence, mean of three wells: 3.602
Supplementary Fig. 47 source data, measurement M48 of time course
  Th-T fluorescence, mean of three wells: 3.575
Supplementary Fig. 47 source data, measurement M49 of time course
  Th-T fluorescence, mean of three wells: 3.594
Supplementary Fig. 47 source data, measurement M50 of time course
  Th-T fluorescence, mean of three wells: 3.623
Supplementary Fig. 47 source data, measurement M51 of time course
  Th-T fluorescence, mean of three wells: 3.626
Supplementary Fig. 47 source data, measurement M52 of time course
  Th-T fluorescence, mean of three wells: 3.602
Supplementary Fig. 47 source data, measurement M53 of time course
  Th-T fluorescence, mean of three wells: 3.622
Supplementary Fig. 47 source data, measurement M54 of time course
  Th-T fluorescence, mean of three wells: 3.589
Supplementary Fig. 47 source data, measurement M55 of time course
  Th-T fluorescence, mean of three wells: 3.592
Supplementary Fig. 47 source data, measurement M56 of time course
  Th-T fluorescence, mean of three wells: 3.6022
Measurement M1
  Th-T assay plate reading, mean of three wells (Supplementary Fig. 47): 0.291
Measurement M2
  Th-T assay plate reading, mean of three wells (Supplementary Fig. 47): 0.3102
Measurement M3
  Th-T assay plate reading, mean of three wells (Supplementary Fig. 47): 0.3462
Measurement M4
  Th-T assay plate reading, mean of three wells (Supplementary Fig. 47): 0.3847
Measurement M5
  Th-T assay plate reading, mean of three wells (Supplementary Fig. 47): 0.4026
Measurement M6
  Th-T assay plate reading, mean of three wells (Supplementary Fig. 47): 0.4778
Measurement M7
  Th-T assay plate reading, mean of three wells (Supplementary Fig. 47): 0.5127
Measurement M8
  Th-T assay plate reading, mean of three wells (Supplementary Fig. 47): 0.5767
Measurement M9
  Th-T assay plate reading, mean of three wells (Supplementary Fig. 47): 0.6534
Measurement M10
  Th-T assay plate reading, mean of three wells (Supplementary Fig. 47): 0.7067
Measurement M11
  Th-T assay plate reading, mean of three wells (Supplementary Fig. 47): 0.7325
Measurement M12
  Th-T assay plate reading, mean of three wells (Supplementary Fig. 47): 0.7635
Measurement M13
  Th-T assay plate reading, mean of three wells (Supplementary Fig. 47): 0.7892
Measurement M14
  Th-T assay plate reading, mean of three wells (Supplementary Fig. 47): 0.8105
Measurement M15
  Th-T assay plate reading, mean of three wells (Supplementary Fig. 47): 0.8372
Measurement M16
  Th-T assay plate reading, mean of three wells (Supplementary Fig. 47): 0.8682
Reading M17, Supplementary Fig. 47 source data
  Th-T fluorescence, mean of three wells: 0.9169
Reading M18, Supplementary Fig. 47 source data
  Th-T fluorescence, mean of three wells: 0.9995
Reading M19, Supplementary Fig. 47 source data
  Th-T fluorescence, mean of three wells: 1.135
Reading M20, Supplementary Fig. 47 source data
  Th-T fluorescence, mean of three wells: 1.37
Reading M21, Supplementary Fig. 47 source data
  Th-T fluorescence, mean of three wells: 1.709
Reading M22, Supplementary Fig. 47 source data
  Th-T fluorescence, mean of three wells: 2.121
Reading M23, Supplementary Fig. 47 source data
  Th-T fluorescence, mean of three wells: 2.518
Reading M24, Supplementary Fig. 47 source data
  Th-T fluorescence, mean of three wells: 2.859
Reading M25, Supplementary Fig. 47 source data
  Th-T fluorescence, mean of three wells: 3.1034
Reading M26, Supplementary Fig. 47 source data
  Th-T fluorescence, mean of three wells: 3.2675
Reading M27, Supplementary Fig. 47 source data
  Th-T fluorescence, mean of three wells: 3.339
Reading M28, Supplementary Fig. 47 source data
  Th-T fluorescence, mean of three wells: 3.364
Reading M29, Supplementary Fig. 47 source data
  Th-T fluorescence, mean of three wells: 3.378
Reading M30, Supplementary Fig. 47 source data
  Th-T fluorescence, mean of three wells: 3.446
Reading M31, Supplementary Fig. 47 source data
  Th-T fluorescence, mean of three wells: 3.431
Reading M32, Supplementary Fig. 47 source data
  Th-T fluorescence, mean of three wells: 3.47
Reading M33, Supplementary Fig. 47 source data
  Th-T fluorescence, mean of three wells: 3.448
Reading M34, Supplementary Fig. 47 source data
  Th-T fluorescence, mean of three wells: 3.489
Reading M35, Supplementary Fig. 47 source data
  Th-T fluorescence, mean of three wells: 3.5187
Reading M36, Supplementary Fig. 47 source data
  Th-T fluorescence, mean of three wells: 3.503
Time course, reading M57
  Th-T fluorescence, mean of three wells: 3.603
Time course, reading M58
  Th-T fluorescence, mean of three wells: 3.607
Time course, reading M59
  Th-T fluorescence, mean of three wells: 3.578
Time course, reading M60
  Th-T fluorescence, mean of three wells: 3.583
Time course, reading M61
  Th-T fluorescence, mean of three wells: 3.605
Time course, reading M62
  Th-T fluorescence, mean of three wells: 3.61
Time course, reading M63
  Th-T fluorescence, mean of three wells: 3.6015
Time course, reading M64
  Th-T fluorescence, mean of three wells: 3.57
Time course, reading M65
  Th-T fluorescence, mean of three wells: 3.572
Time course, reading M66
  Th-T fluorescence, mean of three wells: 3.5992
Time course, reading M67
  Th-T fluorescence, mean of three wells: 3.63
time-course reading M97, Supplementary Fig. 47 source data
  Th-T fluorescence, mean of three wells: 3.5286
time-course reading M98, Supplementary Fig. 47 source data
  Th-T fluorescence, mean of three wells: 3.531
time-course reading M99, Supplementary Fig. 47 source data
  Th-T fluorescence, mean of three wells: 3.498
time-course reading M100, Supplementary Fig. 47 source data
  Th-T fluorescence, mean of three wells: 3.513
time-course reading M101, Supplementary Fig. 47 source data
  Th-T fluorescence, mean of three wells: 3.502
time-course reading M102, Supplementary Fig. 47 source data
  Th-T fluorescence, mean of three wells: 3.488
time-course reading M103, Supplementary Fig. 47 source data
  Th-T fluorescence, mean of three wells: 3.486
time-course reading M104, Supplementary Fig. 47 source data
  Th-T fluorescence, mean of three wells: 3.491
time-course reading M105, Supplementary Fig. 47 source data
  Th-T fluorescence, mean of three wells: 3.477
time-course reading M106, Supplementary Fig. 47 source data
  Th-T fluorescence, mean of three wells: 3.476
time-course reading M107, Supplementary Fig. 47 source data
  Th-T fluorescence, mean of three wells: 3.493
time-course reading M108, Supplementary Fig. 47 source data
  Th-T fluorescence, mean of three wells: 3.51
time-course reading M109, Supplementary Fig. 47 source data
  Th-T fluorescence, mean of three wells: 3.4898
time-course reading M110, Supplementary Fig. 47 source data
  Th-T fluorescence, mean of three wells: 3.516
time-course reading M111, Supplementary Fig. 47 source data
  Th-T fluorescence, mean of three wells: 3.513
time-course reading M112, Supplementary Fig. 47 source data
  Th-T fluorescence, mean of three wells: 3.526
time-course reading M113, Supplementary Fig. 47 source data
  Th-T fluorescence, mean of three wells: 3.459
time-course reading M114, Supplementary Fig. 47 source data
  Th-T fluorescence, mean of three wells: 3.543
time-course reading M115, Supplementary Fig. 47 source data
  Th-T fluorescence, mean of three wells: 3.464
time-course reading M116, Supplementary Fig. 47 source data
  Th-T fluorescence, mean of three wells: 3.458
